Literature values in PubChem BioAssay AID1259409 (Chemical Carcinogenesis Research Information System (CCRIS), 2018).

Tested on: rodent chemically induced tumor inhibition, incidence and multiplicity
Experiment: CCRIS tumor inhibitor studies
Conditions: Carcinogen: 7,12-DIMETHYLBENZ[A]ANTHRACENE, 57-97-6

**Q.** Which results are given for `CC1=C(/C=C/C(C)=C/C=C/C(C)=C/C(=O)O)C(C)(C)CCC1`?
**A.** tumour outcome (control, treated, inhibition, significance) (Dose [Inhibitor]: 0, 2 NMOL IN 200 µL ACETONE APPLIED 30 MIN PRIOR TO EACH PROMOTER DOSE 2/WK FOR 25 WK BEGINNING 1 WK POST CARCINOGEN DOS, Route [Inhibitor]: DERMAL, Species: MOUSE, Strain/Sex: CD-1/FEMALE, Target Tissue: Type of Lesion: SKIN: PAPILLOMA, Dose [Carcinogen]: 200 NMOL IN 200 µL ACETONE ONCE, Promoter: 12-O-TETRADECANOYLPHORBOL-13-ACETATE, 16561-29-8): 90%, 83%, 8%, not calculated; tumour outcome (control, treated, inhibition, significance) (Dose [Inhibitor]: 0, 2 NMOL IN 200 µL ACETONE APPLIED 30 MIN PRIOR TO EACH PROMOTER DOSE 2/WK FOR 25 WK BEGINNING 1 WK POST CARCINOGEN DOS, Route [Inhibitor]: DERMAL, Species: MOUSE, Strain/Sex: CD-1/FEMALE, Target Tissue: Type of Lesion: SKIN: PAPILLOMA, Dose [Carcinogen]: 200 NMOL IN 200 µL ACETONE ONCE, Promoter: MIREX, 2385-85-5): 100%, 100%, 0%, not significant; tumour outcome (control, treated, inhibition, significance) (Dose [Inhibitor]: 0, 3 NMOL IN 0.1 ML ACETONE 2/WK APPLIED 40 MIN PRIOR TO EACH PROMOTER DOSE FOR 20 WK (STUDY DURATION: 21 WK), Route [Inhibitor]: DERMAL, Species: MOUSE, Strain/Sex: ICR/FEMALE, Target Tissue: Type of Lesion: SKIN: PAPILLOMA, Dose [Carcinogen]: 100 UG IN 0.1 ML ACETONE ONCE, Promoter: 12-0-TETRADECANOYLPHORBOL-13-ACETATE, 16561-29-8): 99%, 68%, 31%, p<0.01; tumour outcome (control, treated, inhibition, significance) (Dose [Inhibitor]: 0, 5 NMOL IN 200 µL ACETONE APPLIED 30 MIN PRIOR TO EACH PROMOTER DOSE 2/WK FOR 25 WK BEGINNING 1 WK POST CARCINOGEN DOS, Route [Inhibitor]: DERMAL, Species: MOUSE, Strain/Sex: CD-1/FEMALE, Target Tissue: Type of Lesion: SKIN: PAPILLOMA, Dose [Carcinogen]: 200 NMOL IN 200 µL ACETONE ONCE, Promoter: 12-O-TETRADECANOYLPHORBOL-13-ACETATE, 16561-29-8): 90%, 76%, 16%, not calculated; tumour outcome (control, treated, inhibition, significance) (Dose [Inhibitor]: 0, 5 NMOL IN 200 µL ACETONE APPLIED 30 MIN PRIOR TO EACH PROMOTER DOSE 2/WK FOR 25 WK BEGINNING 1 WK POST CARCINOGEN DOS, Route [Inhibitor]: DERMAL, Species: MOUSE, Strain/Sex: CD-1/FEMALE, Target Tissue: Type of Lesion: SKIN: PAPILLOMA, Dose [Carcinogen]: 200 NMOL IN 200 µL ACETONE ONCE, Promoter: MIREX, 2385-85-5): 100%, 100%, 0%, not significant; tumour outcome (control, treated, inhibition, significance) (Dose [Inhibitor]: 0, 10 UG IN 0.2 ML ACETONE 1/WK FOR 5 WK APPLIED 60 MIN PRIOR TO EACH PROMOTER DOSE BEGINNING 1 WK POST CARCINOGEN DOSE, Route [Inhibitor]: DERMAL, Species: MOUSE, Strain/Sex: SENCAR/FEMALE, Target Tissue: Type of Lesion: SKIN: PAPILLOMA, Dose [Carcinogen]: 20 UG IN 0.2 ML ACETONE ONCE, Promoter: 12-O-TETRADECANOYLPHORBOL-13-ACETATE, 16561-29-8): 50%, 10%, 80%, p<0.0001; tumour outcome (control, treated, inhibition, significance) (Dose [Inhibitor]: 0, 10 UG IN 0.2 ML ACETONE 1/WK FOR 20 WK APPLIED 60 MIN PRIOR TO EACH PROMOTER DOSE BEGINNING 1 WK POST CARCINOGEN DOSE, Route [Inhibitor]: DERMAL, Species: MOUSE, Strain/Sex: SENCAR/FEMALE, Target Tissue: Type of Lesion: SKIN: PAPILLOMA, Dose [Carcinogen]: 20 UG IN 0.2 ML ACETONE ONCE, Promoter: 12-O-TETRADECANOYLPHORBOL-13-ACETATE, 16561-29-8): 95%, 55%, 42%, p<0.05; tumour outcome (control, treated, inhibition, significance) (Dose [Inhibitor]: 0, 10 UG IN 0.2 ML ACETONE 2/WK FOR 19 WK BEGINNING 15 WK POST PROMOTION TREATMENT (STUDY DURATION: 49 WK), Route [Inhibitor]: DERMAL, Species: MOUSE, Strain/Sex: SENCAR/FEMALE, Target Tissue: Type of Lesion: SKIN: CARCINOMA, Dose [Carcinogen]: 20 UG IN 0.2 ML ACETONE ONCE, Promoter: 12-O-TETRADECANOYLPHORBOL-13-ACETATE, 16561-29-8): 99%, 54%, 45%, p<0.01; tumour outcome (control, treated, inhibition, significance) (Dose [Inhibitor]: 0, 10 UG IN 0.2 ML ACETONE 2/WK FOR 19 WK BEGINNING POST PROMOTION TREATMENT (STUDY DURATION: 49 WK), Route [Inhibitor]: DERMAL, Species: MOUSE, Strain/Sex: SENCAR/FEMALE, Target Tissue: Type of Lesion: SKIN: CARCINOMA, Dose [Carcinogen]: 20 UG IN 0.2 ML ACETONE ONCE, Promoter: 12-O-TETRADECANOYLPHORBOL-13-ACETATE, 16561-29-8): 88%, 52%, 41%, p<0.01; tumour outcome (control, treated, inhibition, significance) (Dose [Inhibitor]: 0, 10 UG IN 0.2 ML ACETONE 2/WK FOR 19 WK BEGINNING POST PROMOTION TREATMENT (STUDY DURATION: 49 WK), Route [Inhibitor]: DERMAL, Species: MOUSE, Strain/Sex: SENCAR/FEMALE, Target Tissue: Type of Lesion: SKIN: CARCINOMA, Dose [Carcinogen]: 20 UG IN 0.2 ML ACETONE ONCE, Promoter: MEZEREIN, 34807-41-5): 100%, 65%, 35%, p<0.01; tumour outcome (control, treated, inhibition, significance) (Dose [Inhibitor]: 0, 10 UG IN 0.2 ML ACETONE 2/WK FOR 20 WK APPLIED 60 MIN PRIOR TO EACH PROMOTER DOSE BEGINNING 1 WK POST CARCINOGEN DOSE, Route [Inhibitor]: DERMAL, Species: MOUSE, Strain/Sex: SENCAR/FEMALE, Target Tissue: Type of Lesion: SKIN: PAPILLOMA, Dose [Carcinogen]: 20 UG IN 0.2 ML ACETONE ONCE, Promoter: MEZEREIN, 34807-41-5): 86%, 56%, 35%, p<0.05; tumour outcome (control, treated, inhibition, significance) (Dose [Inhibitor]: 0, 30 UG/G OF DIET FOR DURATION OF STUDY (STUDY DURATION: 35 WK), Route [Inhibitor]: ORAL, Species: MOUSE, Strain/Sex: SENCAR/FEMALE, Target Tissue: Type of Lesion: SKIN: PAPILLOMA, Dose [Carcinogen]: 25.5 UG IN 0.2 ML ACETONE 1/WK FOR 20 WK, Promoter: NONE USED): 100%, 90%, 10%, not significant (at 20 wk); tumour outcome (control, treated, inhibition, significance) (Dose [Inhibitor]: 0, 30 UG/G OF DIET FOR DURATION OF STUDY (STUDY DURATION: 35 WK), Route [Inhibitor]: ORAL, Species: RAT, Strain/Sex: SENCAR/FEMALE, Target Tissue: Type of Lesion: SKIN: CARCINOMA, Dose [Carcinogen]: 25.5 UG IN 0.2 ML ACETONE 1/WK FOR 20 WK, Promoter: NONE USED): 24%, 19%, 21%, not significant; tumour outcome (control, treated, inhibition, significance) (Dose [Inhibitor]: 0, 30 UG/G OF DIET FOR DURATION OF STUDY (STUDY DURATION: 40 WK), Route [Inhibitor]: ORAL, Species: MOUSE, Strain/Sex: SENCAR/FEMALE, Target Tissue: Type of Lesion: SKIN: CARCINOMA, Dose [Carcinogen]: 20 UG IN 0.2 ML OF ACETONE ONCE, Promoter: 12-O-TETRADECANOYLPHORBOL-13-ACETATE, 16561-29-8): 30%, 11%, 63%, p=0.027; tumour outcome (control, treated, inhibition, significance) (Dose [Inhibitor]: 0, 30 UG/G OF DIET FOR DURATION OF STUDY (STUDY DURATION: 40 WK), Route [Inhibitor]: ORAL, Species: MOUSE, Strain/Sex: SENCAR/FEMALE, Target Tissue: Type of Lesion: SKIN: CARCINOMA, Dose [Carcinogen]: 20 UG IN 0.2 ML OF ACETONE ONCE, Promoter: MEZEREIN, 34807-41-5): 31%, 5%, 84%, p=0.002; tumour outcome (control, treated, inhibition, significance) (Dose [Inhibitor]: 1.7 NMOL IN 0.2 ML ACETONE 1 HR PRIOR TO EACH PROMOTER DOSE FOR 12 WK (STUDY DURATION: 14 WK), Route [Inhibitor]: DERMAL, Species: MOUSE, Strain/Sex: SENCAR/FEMALE, Target Tissue: Type of Lesion: SKIN: PAPILLOMA, Dose [Carcinogen]: 200 NMOL IN 0.2 ML ACETONE ONCE, Promoter: 12-O-TETRADECANOYLPHORBOL-13-ACETATE, 16561-29-8): 100%, 100%, 0%, not calculated; tumour outcome (control, treated, inhibition, significance) (Dose [Inhibitor]: 1.7 NMOL IN 0.2 ML ACETONE 1 HR PRIOR TO EACH PROMOTER DOSE FOR 20 WK (STUDY DURATION: 22 WK), Route [Inhibitor]: DERMAL, Species: MOUSE, Strain/Sex: CD-1/FEMALE, Target Tissue: Type of Lesion: SKIN: PAPILLOMA, Dose [Carcinogen]: 200 NMOL IN 0.2 ML ACETONE ONCE, Promoter: 12-O-TETRADECANOYLPHORBOL-13-ACETATE, 16561-29-8): 94%, 80%, 15%, not calculated; tumour outcome (control, treated, inhibition, significance) (Dose [Inhibitor]: 1.7 NMOL IN 0.2 ML ACETONE 2/WK 1 HR BEFORE EACH PROMOTER APPLICATION STARTING 14 D AFTER CARCINOGEN APPLICATION AND CON, Route [Inhibitor]: DERMAL, Species: MOUSE, Strain/Sex: CD-1/FEMALE, Target Tissue: Type of Lesion: SKIN: PAPILLOMA, Dose [Carcinogen]: 0.2 UMOL IN 0.2 ML ACETONE ONCE, Promoter: 12-O-TETRADECANOYLPHORBOL-13-ACETATE, 16561-29-8): 100%, 90%, 10%, not significant; tumour outcome (control, treated, inhibition, significance) (Dose [Inhibitor]: 3, 30 UG IN DIET FOR DURATION OF STUDY (STUDY DURATION: 44 WK), Route [Inhibitor]: ORAL, Species: MOUSE, Strain/Sex: SENCAR/FEMALE, Target Tissue: Type of Lesion: SKIN: PAPILLOMA, Dose [Carcinogen]: 20 UG IN 0.2 ML ACETONE ONCE, Promoter: 12-O-TETRADECANOYLPHORBOL-13-ACETATE, 16561-29-8): 100%, 100%, 0%, not significant; tumour outcome (control, treated, inhibition, significance) (Dose [Inhibitor]: 3, 30 UG/G OF DIET FOR DURATION OF STUDY BEGINNING POST CARCINOGEN DOSE (STUDY DURATION: 40 WK), Route [Inhibitor]: ORAL, Species: MOUSE, Strain/Sex: SENCAR/FEMALE, Target Tissue: Type of Lesion: SKIN: CARCINOMA, Dose [Carcinogen]: 20 UG IN 0.2 ML ACETONE ONCE AT 7 WK OF AGE, Promoter: 12-O-TETRADECANOYLPHORBOL-13-ACETATE, 16561-29-8): 12/38 (32%), 3/30 (10%), 69%, p<0.05; tumour outcome (control, treated, inhibition, significance) (Dose [Inhibitor]: 3, 30 UG/G OF DIET FOR DURATION OF STUDY BEGINNING POST CARCINOGEN DOSE (STUDY DURATION: 40 WK), Route [Inhibitor]: ORAL, Species: MOUSE, Strain/Sex: SENCAR/FEMALE, Target Tissue: Type of Lesion: SKIN: CARCINOMA, Dose [Carcinogen]: 20 UG IN 0.2 ML ACETONE ONCE AT 7 WK OF AGE, Promoter: MEZEREIN, 34807-41-5): 12/39 (31%), 5/40 (13%), 58%, p<0.05
